{"source": "patent US20250041267A1", "about": "“TREATEMENT FOR CRYOPYRIN ASSOCIATED PERIODIC SYNDROMES (CAPS)” (Zydus Lifesciences Limited, priority 2021, published 2025)", "key": {"[1]": {"experiment": "Phase 1 single oral dose pharmacokinetics in healthy subjects (plasma and urine, LC-MS/MS)", "format": "in vivo, human", "conditions": "for half-life / Cmax / dose excreted: human; for half-life / Cmax: plasma; for half-life: read-out: mean elimination half-life (converted); for dose excreted: urine, read-out: mean cumulative percentage urinary recovery of unchanged compound"}, "[2]": {"tested_on": "activated THP-1 cells, hPBMCs and whole blood", "experiment": "IL-1β and IL-18 secretion from cells treated with LPS and ATP", "format": "cell-based, human", "method": "Compound 11, a potent NLRP3 inflammazome inhibitor blocks the IL-1β and IL-18 secretion from activated THP-1 cells, hPBMCs (Human peripheral blood mononuclear cell) and whole blood treated with LPS (lipopolysaccharide) and ATP (Adenosine triphosphate). For the whole blood assay, human peripheral venous blood was collected from healthy volunteers following the protocol approved by ethics committee. Whole blood was distributed in 96-well plates and primed with LPS (500 ng/mL) for 4 hours. Different concentrations of compound 11 was added in the presence of serum free media. NLRP3 inflammasome was induced with ATP (5 mM) for 1 hour. The supernatant was collected at the end of 1 hour and assayed for released IL-1β using the ELISA method. The inhibition in the cytokine levels was plotted and the half maximal inhibitory concentration was derived."}, "[3]": {"experiment": "Phase 1 single oral dose safety and tolerability in healthy subjects", "format": "in vivo, human", "conditions": "till 100 mg single dose"}, "[4]": {"conditions": "25 mg single oral dose, cohort S1"}, "[5]": {"conditions": "50 mg single oral dose, cohort S2"}, "[6]": {"conditions": "100 mg single oral dose, cohort S3"}}, "note": "Read-outs that look alike come from different tables or passages of the source.", "data": [{"compound": "CN1CCC[C@]1(C)/C=C/S(=O)(=O)NC(=O)Nc1c2c(cc3c1CCC3)CCC2", "note": "[Compound 11, (R,E)-2-(1,2-dimethylpyrrolidin-2-yl)-N-((1,2,3,5,6,7-hexahydro-s-indacen-4-yl)carbamoyl)ethene-1-sulfonamide]", "values": [{"measurement": "mean plasma clearance", "setting": "[1]; [4]", "result": "0.922 ± 0.01", "unit": "L/h"}, {"measurement": "mean volume of distribution", "setting": "[1]; [4]", "result": "8681.147 ± 929.14", "unit": "mL"}, {"measurement": "mean plasma clearance", "setting": "[1]; [5]", "result": "1.238 ± 0.22", "unit": "L/h"}, {"measurement": "mean volume of distribution", "setting": "[1]; [5]", "result": "10285.52 ± 1174.32", "unit": "mL"}, {"measurement": "mean plasma clearance", "setting": "[1]; [6]", "result": "1.099 ± 0.15", "unit": "L/h"}, {"measurement": "mean volume of distribution", "setting": "[1]; [6]", "result": "9847.576 ± 825.72", "unit": "mL"}, {"measurement": "half-life", "setting": "[1]; oral, across all three doses (25, 50, 100 mg)", "result": "360 to 390", "unit": "min"}, {"measurement": "Cmax", "setting": "[1]; [4]", "result": "3390 ± 720", "unit": "ng/mL"}, {"measurement": "half-life", "setting": "[1]; [4]", "result": "392 ± 40.2", "unit": "min"}, {"measurement": "Cmax", "setting": "[1]; [5]", "result": "5720 ± 520", "unit": "ng/mL"}, {"measurement": "half-life", "setting": "[1]; [5]", "result": "349 ± 28.2", "unit": "min"}, {"measurement": "half-life", "setting": "[1]; [6]", "result": "376 ± 39", "unit": "min"}, {"measurement": "dose excreted", "setting": "[1]; [4]", "result": 93.3, "unit": "%"}, {"measurement": "dose excreted", "setting": "[1]; [5]", "result": 69.1, "unit": "%"}, {"measurement": "dose excreted", "setting": "[1]; [6]", "result": 76.6, "unit": "%"}, {"measurement": "IL-1β and IL-18 secretion", "setting": "[2]", "result": "blocks"}, {"measurement": "safety and tolerability", "setting": "[3]", "result": "safe and well tolerated"}]}]}
